# Test results: the supplement of paper PMC11061612
# Tests used:
# Assay in all cases: combination Emax (second highest fraction inhibited in the dose matrix, 72 h); higher = more inhibition; extreme values may be limits of the assay
# [1] = test system: TE-4 (Esophageal Squamous Cell Carcinoma)
# Summary of the method: (§1)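 After 24 hours at 37°C and 5% CO2 in 1536-well plates, cells in DMEM/F12 or RPMI plus 10% FBS received two-drug dose matrices for 72 hours. Viability came from CellTiter-Glo 2.0 luminescence and was scaled as inhibition, anchored at 0 by vehicle wells and at 1 by blank wells. Combination Emax is taken as the second-highest inhibition in the matrix, and Bliss excess as the observed combination effect less EA + EB − EA·EB, with EA and EB the single-agent effects.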
# NCI-H28 (Mesothelioma) = test system: NCI-H28 (Mesothelioma)
# Summary of the method: as §1
# [2] = test system: Hs-633T (Other Solid Carcinomas)
# Summary of the method: as §1
# [3] = test system: HDLM-2 (Hodgkin's Lymphoma)
# Summary of the method: as §1
# [4] = test system: SW1116 (Colorectal Carcinoma)
# Summary of the method: as §1
# [5] = test system: LU-139 (Small Cell Lung Carcinoma)
# Summary of the method: as §1
# [6] = test system: LB771-HNC (Head and Neck Carcinoma)
# Summary of the method: as §1
# [7] = test system: HO-1-u-1 (Oral Cavity Carcinoma)
# Summary of the method: as §1
# [8] = test system: KARPAS-231 (B-Cell Non-Hodgkin's Lymphoma)
# Summary of the method: as §1
# [9] = test system: MHH-PREB-1 (B-Cell Non-Hodgkin's Lymphoma)
# Summary of the method: as §1
# [10] = test system: KYSE-410 (Esophageal Squamous Cell Carcinoma)
# Summary of the method: as §1
# [11] = test system: OC-314 (Ovarian Carcinoma)
# Summary of the method: as §1
# [12] = test system: K5 (Thyroid Gland Carcinoma)
# Summary of the method: as §1
# [13] = test system: MDA-MB-468 (Breast Carcinoma)
# Summary of the method: as §1
# Mewo (Melanoma) = test system: Mewo (Melanoma)
# Summary of the method: as §1
# [14] = test system: OVCAR-8 (Ovarian Carcinoma)
# Summary of the method: as §1
# HMV-II (Melanoma) = test system: HMV-II (Melanoma)
# Summary of the method: as §1
# [15] = test system: SW626 (Colorectal Carcinoma)
# Summary of the method: as §1
# [16] = test system: CAPAN-1 (Pancreatic Carcinoma)
# Summary of the method: as §1
Structure (SMILES),combination Emax [1],combination Emax (NCI-H28 (Mesothelioma)),combination Emax [2],combination Emax [3],combination Emax [4],combination Emax [5],combination Emax [6],combination Emax [7],combination Emax [8],combination Emax [9],combination Emax [10],combination Emax [11],combination Emax [12],combination Emax [13],combination Emax (Mewo (Melanoma)),combination Emax [14],combination Emax (HMV-II (Melanoma)),combination Emax [15],combination Emax [16]
"C=CCn1c(=O)c2cnc(Nc3ccc(N4CCN(C)CC4)cc3)nc2n1-c1cccc(C(C)(C)O)n1 [AZD1775] + C1CN(CCC1(C(=O)N[C@@H](CCO)C2=CC=C(C=C2)Cl)N)C3=NC=NC4=C3C=CN4 [Capivasertib] (first compound max 3 µM, partner max 3 µM)",0.88,0.56,0.897,0.769,0.48,0.733,0.696,0.913,1,0.812,0.663,0.915,0.603,0.741,0.589,0.812,0.592,0.583,0.674
"CN(C)CCCOc1ccc(-c2ccc3ncc4c(c3c2)n(C2CCOCC2)c(=O)n4C)cn1 [AZD0156] + O=C(c1cc(Cc2n[nH]c(=O)c3ccccc23)ccc1F)N1CCN(C(=O)C2CC2)CC1 [Olaparib] (first compound max 3 µM, partner max 3 µM)",0.206,0.323,0.57,0.207,0.206,0.264,0.223,0.408,0.371,0.378,0.172,0.497,0.314,0.392,0.322,0.316,0.383,0.164,0.295
"NC1(C(=O)N[C@@H](CCO)c2ccc(Cl)cc2)CCN(c2ncnc3[nH]ccc23)CC1 [Capivasertib] + C[C@@H]1COCCN1C2=NC(=NC(=C2)C3(CC3)[S@](=N)(=O)C)C4=C5C=CNC5=NC=C4 [AZD6738] (first compound max 10 µM, 7x7, partner max 10 µM)",0.818,0.512,0.894,0.518,0.227,0.25,0.674,0.887,0.691,0.749,0.397,0.793,0.687,0.726,0.557,0.776,0.465,0.68,0.364
"NC1(C(=O)N[C@@H](CCO)c2ccc(Cl)cc2)CCN(c2ncnc3[nH]ccc23)CC1 [Capivasertib] + CC(=O)c1c(C)c2cnc(Nc3ccc(N4CCNCC4)cn3)nc2n(C2CCCC2)c1=O [Palbociclib] (first compound max 10 µM, 7x7, partner max 10 µM)",0.826,0.425,0.707,0.29,0.136,0.0872,0.403,0.806,0.129,0.502,0.549,0.515,0.653,0.508,0.493,0.221,0.524,0.348,0.277
"CS(=O)(=O)CCNCc1ccc(-c2ccc3ncnc(Nc4ccc(OCc5cccc(F)c5)c(Cl)c4)c3c2)o1 [Lapatinib] + C[C@@H](Oc1cc(-c2cnn(C3CCNCC3)c2)cnc1N)c1c(Cl)ccc(F)c1Cl [Crizotinib] (first compound max 10 µM, 7x7, partner max 10 µM)",1,0.622,0.934,0.552,0.688,0.936,0.854,0.961,0.57,0.96,0.934,0.881,0.984,0.959,0.537,0.79,0.912,0.626,0.527
"NC1(C(=O)N[C@@H](CCO)c2ccc(Cl)cc2)CCN(c2ncnc3[nH]ccc23)CC1 [Capivasertib] + CCN(CCO)CCCOc1ccc2c(Nc3cc(CC(=O)Nc4cccc(F)c4)[nH]n3)ncnc2c1 [AZD2811] (first compound max 10 µM, 7x7, partner max 1 µM)",0.748,0.416,0.432,0.395,0.197,0.293,0.489,0.848,0.551,0.257,0.303,0.571,0.554,0.561,0.401,0.393,0.445,0.292,0.225
"CC(=O)c1c(C)c2cnc(Nc3ccc(N4CCNCC4)cn3)nc2n(C2CCCC2)c1=O [Palbociclib] + Cn1cnc2c(F)c(Nc3ccc(Br)cc3Cl)c(C(=O)NOCCO)cc21 [Selumetinib] (first compound max 10 µM, 7x7, partner max 10 µM)",0.403,0.379,0.599,0.335,0.396,0.282,0.194,0.465,0.264,0.445,0.261,0.478,0.627,0.441,0.485,0.146,0.809,0.531,0.382
"Cc1nc(Nc2ncc(C(=O)Nc3c(C)cccc3Cl)s2)cc(N2CCN(CCO)CC2)n1 [Dasatinib] + CC(=O)Nc1cccc(-n2c(=O)n(C3CC3)c(=O)c3c(Nc4ccc(I)cc4F)n(C)c(=O)c(C)c32)c1 [Trametinib] (first compound max 2 µM, 7x7, partner max 1 µM)",0.857,0.721,0.939,0.12,0.757,0.0497,0.202,0.713,0.476,0.0875,0.546,0.781,0.929,0.621,0.589,0.671,0.786,0.849,0.615
"CC(=O)c1c(C)c2cnc(Nc3ccc(N4CCNCC4)cn3)nc2n(C2CCCC2)c1=O [Palbociclib] + Cc1c2c(nn1C)CSCc1cc(n(C)n1)CSc1cc(c3ccccc3c1)OCCCc1c(C(=O)O)n(C)c3c-2c(Cl)ccc13 [AZD5991] (first compound max 10 µM, 7x7, partner max 1 µM)",0.966,0.413,0.519,0.97,0.164,0.25,0.448,0.367,0.657,0.511,0.407,0.334,0.541,0.463,0.569,0.129,0.625,0.336,0.245
"NC1(C(=O)N[C@@H](CCO)c2ccc(Cl)cc2)CCN(c2ncnc3[nH]ccc23)CC1 [Capivasertib] + Cn1cnc2c(F)c(Nc3ccc(Br)cc3Cl)c(C(=O)NOCCO)cc21 [Selumetinib] (first compound max 10 µM, 7x7, partner max 10 µM)",0.961,0.404,0.633,0.205,0.453,0.0716,0.51,0.878,0.0035,0.205,0.532,0.604,0.864,0.741,0.589,0.303,0.838,0.65,0.476
"COc1nnc2ccc(N3CCC(c4ccc(OCCN5CCN(C)C(=O)[C@H]5C)cc4)CC3)nn12 [AZD5153] + CC1(C)CCC(CN2CCN(c3ccc(C(=O)NS(=O)(=O)c4ccc(NCC5CCOCC5)c([N+](=O)[O-])c4)c(Oc4cnc5[nH]ccc5c4)c3)CC2)=C(c2ccc(Cl)cc2)C1 [Venetoclax] (first compound max 1 µM, 7x7, partner max 1 µM)",0.27,0.487,0.564,0.612,0.353,0.948,0.481,0.55,1,0.481,0.266,0.814,0.668,–,0.563,0.661,0.524,0.689,0.335
"C[C@@H](c1ccc2nccn2c1)n1nnc2ncc(-c3cnn(C)c3)nc21 [Savolitinib] + Cc1c2c(nn1C)CSCc1cc(n(C)n1)CSc1cc(c3ccccc3c1)OCCCc1c(C(=O)O)n(C)c3c-2c(Cl)ccc13 [AZD5991] (first compound max 1 µM, 7x7, partner max 1 µM)",0.422,0.155,0.12,0.962,0.218,0.126,0.412,0.196,0.606,0.0906,0.181,0.163,0.14,–,0.265,0.0965,0.128,0.221,0.242
"COc1cc2ncnc(Nc3ccc(F)c(Cl)c3)c2cc1OCCCN1CCOCC1 [Gefitinib] + CC(C)n1c(=O)n(C)c2cnc3cc(F)c(-c4ccc(OCCCN5CCCCC5)nc4)cc3c21 [AZD1390] (first compound max 10 µM, 7x7, partner max 0.3 µM)",0.981,0.346,0.203,0.192,0.241,0.0288,0.0839,0.487,0.24,0.123,0.362,0.255,0.0692,–,0.0376,0.223,0.411,0.0985,0.253
